Data reported in publication PMC2034157, “CRC/EORTC/NCI Joint Formulation Working Party: experiences in the formulation of investigational cytotoxic drugs” (British Journal of Cancer, 1995).
≈ marks a conversion by molar mass, not a printed value. Read-outs that look alike come from different tables or passages of the source.

How the values were obtained:
[1] = physchem
Excerpt: (§1) Brsh Jowbnl d Cancer ( ) 72, 210-218 ? […] Figwe 3 Chemical stnruu of disulphonated aluminium phthalocyamne.

[2] = Stability of formulated product (shelf-life, reconstituted solution); details: for pH of reconstituted solution: lyophilised product reconstituted with water
Excerpt: as §1

[3] = tested on: gliomas; set-up: method as in Stevens and Newlands, 1993; details: daily for five consecutive days; ref Stevens and Newlands, 1993; cited from earlier work
[4] = Preclinical toxicology studies
Excerpt: (§2) Figwe 3 Chemical stnruu of disulphonated aluminium phthalocyamne.

[5] = Murine anti-tumour tests; format: in vivo
Excerpt: as §1

[6] = Clinical pharmacokinetics in phase I trial; format: in vivo, human
Excerpt: as §1

[7] = Phase I/II clinical trials: toxicity; format: in vivo, human; details: phase I trial
Excerpt: as §1

[8] = data from the drug's discoverers; ref Pettit et al., 1982; cited from earlier work
[9] = Compatibility and adsorption studies with administration sets; format: physicochemical
Excerpt: as §1

[10] = Aqueous solubility; details: for aqueous solubility (in words): water / aqueous solution
[11] = set-up: method as in de Vries et al., 1993; details: aqueous solution; ref de Vries et al., 1993; cited from earlier work
[12] = physchem; remark: listed apart in the source
[13] = cited from earlier work; for maximum tolerated dose (MTD): ref Judson et al., 1989
[14] = Solution stability / decomposition studies
Excerpt: as §2

[15] = set-up: method as in Torres-Labandeira et al., 1991; details: 40% aqueous solution of HPCD; ref Torres-Labandeira et al., 1991; cited from earlier work
[16] = tested on: P388 leukaemia; assay: Anti-tumour activity against P388 leukaemia; format: in vivo
Excerpt: as §1

[17] = phase I studies; ref Sessa et al., 1991; cited from earlier work
[18] = tested on: B16 melanoma; assay: Anti-tumour activity against B16 melanoma; format: in vivo
Excerpt: as §1

[19] = In vivo anti-tumour activity
Excerpt: as §1

[20] = tested on: acid or alkaline phosphatase; assay: Incubation of prodrug with phosphatase; format: biochemical; details: incubated with acid or alkaline phosphatase
Excerpt: as §1

[21] = 50% aqueous PEG 3400, 30 mg ml-1, not further diluted; ref Gibson et al. (1990); cited from earlier work
[22] = tested on: L1210 leukaemia; assay: Anti-tumour activity against L1210 leukaemia; format: in vivo
Excerpt: as §1

[23] = tested on: colon 26; assay: Anti-tumour activity against colon 26 tumour; format: in vivo
Excerpt: as §1

[24] = tested on: DNA polymerase-alpha; set-up: method as in Bucknall et al., 1973; Taguchi et al., 1978; details: ref Bucknall et al., 1973; Taguchi et al., 1978; cited from earlier work
[25] = tested on: LOX amelanotic melanoma; set-up: method as in Waud et al., 1992; details: xenograft in athymic mice; ref Waud et al., 1992; cited from earlier work
[26] = tested on: NCI-H82; set-up: method as in Waud et al., 1992; details: xenograft in athymic mice; ref Waud et al., 1992; cited from earlier work
[27] = tested on: MX-1 mammary carcinoma; set-up: method as in Waud et al., 1992; details: xenograft in athymic mice; ref Waud et al., 1992; cited from earlier work

For `CCN(CC)c1ccc2cc(C(=O)Nc3ccc4[nH]c(C(=O)N5C[C@@H](CCl)c6c5cc(OC(=O)Nc5ccccc5)c5[nH]cc(C)c65)cc4c3)oc2c1` [Carzelesin], the “solubility in common pharmaceutically acceptable solvents” value [1] was “very low” and the “time drug is stable in PET vehicle” value ([2]; stored at -30C, PEG 400/polysorbate 80/ethanol) was “at least 1 year”.
In the case of `Cn1nnc2c(C(N)=O)ncn2c1=O` [Temozolomide], the activity against gliomas [3] is listed as “evident”, the “solubility in DMSO relative to mitozolomide” value ([1]; DMSO) is listed as “less soluble” and the “toxicity relative to mitozolomide” value ([4]; in vivo) is listed as “ess toxi”. The “potency relative to mitozolomide” value [5] was “less potent”, the bioavailability ([6]; human, in vivo, patients, 200 mg m2, oral vs i.v., read-out: bioavailability of oral formulation) was roughly 100% and the “dose dependency in the pharmacokinetics” value ([6]; oral formulation, dose escalations) was “no evidence of dose dependency”. The “absorption of oral formulation” value ([6]; patients, oral) was “rapid”.
In the case of `CCC/C=C/C=C/C(=O)O[C@H]1/C(=C/C(=O)OC)C[C@H]2C[C@H]([C@@H](C)O)OC(=O)C[C@H](O)C[C@@H]3C[C@H](OC(C)=O)C(C)(C)[C@](O)(C[C@@H]4C/C(=C/C(=O)OC)C[C@H](/C=C/C(C)(C)[C@]1(O)O2)O4)O3` [bryostatin 1], the “local toxicity thought to be associated with high ethanol concentration” value ([7]; ethanol solution) is listed as “phlebitis”, the major toxicity ([7]; with or without in-line dilution) is listed as “general myalgia” and the “aqueous solubility (in words)” value [8] is listed as “lmited”. The “percentage of ethanol below which the drug precipitated” value ([1]; ethanolic solutions at predicted formulation concentrations) was “below 50%”, the “adsorption onto administration set surfaces” value ([9]; PTFE-lined sets, ethanol concentration below 50%) was “significant” and the “adsorption onto administration set surfaces” value ([9]; plastic not PTFE-lined (e.g. PVC)) was “exten- sive adsorption”.
In the case of `Cn1c(/C=C/CO)c(CO)c2c1C(=O)C=C(N1CC1)C2=O` [E.O.9], the “aqueous solubility (in words)” value [10] is given as “lmited”, the “pH of maximum stability” value [11] is given as “around 9.5” and the solubility [12] is given as 200 to 500 µg/mL (≈ 0.694 to 1.73 mM). The “time reconstituted solution is stable” value ([2]; 0.5 mg ml-1 in 0.9% sodium chloride, room temperature) was “at least 24 h”.
For `ClCC[N+]12CC[N+](CCCl)(CC1)C2.O=C([O-])/C=C\C(=O)O.O=C([O-])/C=C\C(=O)O` [Dabis maleate, 1,4-bis (2'-chloroethyl)-1,4-diazabicyclo-[2.2.1] heptane dimaleate], the “recommended phase II dose” value ([13]; 6 h infusion for 6 weeks followed by 3 week drug vacation, ref Verweij et al., 1992) is given as 500 mg m2 week-', the “recommended dose for phase II trials” value ([13]; once every 3 weeks, ref van der Burg et al., 1991) is given as 750 mg m-2 and the dose-limiting toxicity ([13]; phase I, once every 3 weeks, ref van der Burg et al., 1991) is given as “neurotoxicity”. The “toxicity of prolonged infusion” value ([13]; prolonged infusion, ref Verweij et al., 1992) was “neurotoxicity consisting of parasthesia and ataxia”.
In the case of `CO[C@@H](/C(C)=C/C=C/C(C)=C/c1coc(C)n1)[C@@H](C)[C@@H]1C[C@H](O)[C@@]2(C)O[C@@H]2/C=C/[C@@H](C)[C@H]2C[C@H](CC(=O)O2)C[C@@H]2O[C@H]2C(=O)O1` [Rhizoxin], the “increase in degradation in presence of light vs protected from light” value ([14]; pH 5.6) is reported as “approximately 2 -fold”, the “solubility in t-butanol and t-butanol-water mixtures” value ([1]; t-butanol, t-butanol-water) is reported as “excellent” and the solubility [12] is reported as 12 µg/mL (≈ 0.0192 mM).
For `CS(=O)(=O)OCCN(CCCl)c1ccc(C(=O)N[C@@H](CCC(=O)O)C(=O)O)cc1` [Springer prodrug], the “time until degradation apparent” value ([2]; lyophilised material at 20-25C) was no more than 2 weeks and the “time lyophilised material is stable” value ([2]; stored at 4C) was “up to 1 year”.
In the case of `NC(=O)c1ncn2c(=O)n(CCCl)nnc12` [Mitozolomide, mitozolomide, reference compound], the “toxicity for which trials were terminated” value ([13]; phase I and phase II clinical trials) is listed as “unpredictable throm- bocYtopenia”.
In the case of `O=C1N[C@H]2[C@H](O)[C@H](O)[C@@H](O)[C@H](O)[C@@H]2c2cc3c(c(O)c21)OCO3` [Pancratistatin], the “solubility in hydroxypropyl-beta-cyclodextrin solution” value [15] is listed as “approximately 1.2 mg ml-'”, the solubility ([1]; aqueous solubilisation with complexing agent) is listed as 1000 µg/mL (≈ 3.07 mM) and the solubility ([1]; solubility in a range of solvents) is listed as less than 400 µg/mL. For the same compound, the “pH of reconstituted solution” value [2] was 6.3.
In the case of `C[C@@]1(CO)[C@H](O)CC[C@@]2(C)[C@H]1CC[C@H]1C[C@@H]3C[C@@]12CC[C@]3(O)COC(=O)CN.Cl` [aphidicolin glycinate], the “pH of maximal stability” value ([14]; pH 2.0-9.0 at 40-C) is given as 4.5, the anti-tumour activity [16] is given as “active” and the pharmacologically active levels [17] is given as “had not been achieved”. The “dose at which toxicity was dose limiting” value ([13]; 1 h infusion for five consecutive days every 3 weeks, ref Sessa et al., 1991) was 2250 mg m-2, the “dose at which toxicity was dose limiting” value ([13]; 24 h infusion every 3 weeks, ref Sessa et al., 1991) was 4500 mg m-2 and the dose-limiting toxicity ([13]; both phase I studies, ref Sessa et al., 1991) was “Local toxicity”. For the same compound, the “solubility of hydrochloride salt of the glycine amino group” value ([10]; hydrochloride salt) was “greater than 100 mgnml'”, the “time diluted solution is stable” value ([2]; 1 mg ml-1 in 5% dextrose or 0.9% sodium chloride injection, HPLC) was “more than 24 h” and the “time reconstituted solution is stable” value ([2]; 100 mg ml-1 in water for injection) was “at least 24 h”. For the same compound, the anti-tumour activity [18] was “active”.
For `COc1ccc(O)cc1` [4-Hydroxyanisole], the toxicity observed ([7]; intravenous, ethanol vehicle) was “Hepatotoxicity was observed”.
For `CCCCCCCCCCCCCCCCCCOCC1(COP(=O)([O-])OCC[N+](C)(C)C)CCCO1` (stereo not shown) [SRI 62-834], the “solubility in aqueous systems” value ([10]; at 20C) was 50 % (w/ v), the “local tolerance of simple aqueous formulations” value ([4]; simple aqueous formulations) was “irritation at the site of injection” and the “time formulation is chemically and physically stable” value ([2]; Intralipid formulation) was 3 months.
For `COc1ccc(/C=C\c2cc(OC)c(OC)c(OC)c2)cc1OP(=O)(O)O` [phosphate ester], the “stability in aqueous solutions (in words)” value ([14]; aqueous solutions) was “adequate”, the “aqueous solubility (in words)” value [10] was “adequate” and the in vivo activity [19] was “inactive”. For the same compound, the “release of parent molecule” value [20] was “released the parent mokcule”.
In the case of `CN(CO)c1nc(N(C)CO)nc(N(C)CO)n1` [Trimelamol, N2,N4,N6-trihydroxymethyl-N2,N4,N6-trimethylmelamine], the “t/2 of reconstituted freeze-dried formulation” value [21] is given as 46.3 h, the “pH of maximum stability” value ([14]; HPLC, 25C, pH 3-12.5) is given as 10-11 and the half-life ([14]; buffer, pH 10) is given as greater than 30 h. For the same compound, the anti-tumour activity [22] was “active”, the anti-tumour activity [16] was “active” and the “maximum tolerated dose (MTD)” value ([13]; single administration) was 2400 mgm-2. The “maximum tolerated dose (MTD)” value ([13]; thrice-daily schedule) was 1000 mg m2, the solubility ([1]; 95% ethanol) was roughly 45000 µg/mL (≈ 174 mM) and the solubility ([1]; DMA) was roughly 375000 µg/mL (≈ 1450 mM). The solubility ([1]; propylene glycol) was roughly 15000 µg/mL (≈ 58.1 mM), the solubility ([12]; water) was 10000 µg/mL (≈ 38.7 mM) and the anti-tumour activity [23] was “active”. For the same compound, the anti-tumour activity [18] was “active”.
For `C[C@@]1(CO)[C@H](O)CC[C@@]2(C)[C@H]1CC[C@H]1C[C@@H]3C[C@@]12CC[C@]3(O)CO` [Aphidicolin, reference compound], the “effect on DNA polymerase” value [24] is given as “inhibit”, the solubility [12] is given as roughly 250 µg/mL (≈ 0.739 mM) and the anti-tumour activity [23] is given as “observed”. The anti-tumour activity [18] was “observed”.
For `CNC(=O)OCc1nc(SC)n(C)c1COC(=O)NC.Cl` [Carmethizole hydrochloride, carmethizole hydrochloride], the “pH of maximal stability” value ([14]; about pH 1 or lower) is given as roughly 1, the anti-tumour activity [25] is given as “active” and the “solubility of the hydrochloride salt” value ([10]; hydrochloride salt) is given as “greater than 500 mg ml- 1”. The anti-tumour activity [26] was “active”, the toxicity observed ([4]; preclinical toxicology studies) was “signifiant cardiotoxicity” and the anti-tumour activity [27] was “active”. The “teA (time to 10% decomposition)” value ([2]; freeze-dried product reconstituted with water for injection, solution pH 2.8) was roughly 5.4 h and the “pH of reconstituted solution” value [2] was 2.8.
